Test results taken from paper PMC10566475, “A cell-active cyclic peptide targeting the Nrf2/Keap1 protein–protein interaction” (Chemical Science, 2023).
*1 amine or outer side, *2 acyl side, *3 side chain or, on linkers, in order; H or OH if unused. Where a SMILES comes first, the peptide text is derived from it. Bridges are numbered along the chain shown (N, C = ends). Roman numbers before positions name the chains, in order. [ ]: non-standard residue; d: D form. X3 = CCCCCCCCCCCCCCCCCC(=O)NCCCC[C@H](NC(=O)COCCOCCNC(=O)COCCOCCn1cc(COCCOCCNc2nc(CC[*:1])cc(CC[*:2])n2)nn1)C(=O)NCCOCCOCC(=O)NCCOCCOCC(N)=O; X2 = O=C(CCCCn1cc(COCCOCCNc2nc(CC[*:1])cc(CC[*:2])n2)nn1)[*:3]; X1 = CN(CC(=O)O)c1nc(CC[*:1])cc(CC[*:2])n1; mXylylene = c1cc(C[*:1])cc(C[*:2])c1; CH2 = C([*:1])[*:2]

Columns and labels:
[1] = biological target: T1, interaction between the human Keap1 Kelch domain and an Nrf2-ETGE peptide (Homo sapiens, UniProt Q14145); assay: Keap1-Nrf2 TR-FRET (HTRF) assay; format: binding; conditions: Table 1; geometric mean ± sd of at least 3 independent repeats unless stated; read-out: TR-FRET IC50
T1 construct: 1nM purified human Keap1 Kelch domain (A321-T609) fused with N-terminal 6x His-tag; made in house
T1 sequence (Q14145 321-609): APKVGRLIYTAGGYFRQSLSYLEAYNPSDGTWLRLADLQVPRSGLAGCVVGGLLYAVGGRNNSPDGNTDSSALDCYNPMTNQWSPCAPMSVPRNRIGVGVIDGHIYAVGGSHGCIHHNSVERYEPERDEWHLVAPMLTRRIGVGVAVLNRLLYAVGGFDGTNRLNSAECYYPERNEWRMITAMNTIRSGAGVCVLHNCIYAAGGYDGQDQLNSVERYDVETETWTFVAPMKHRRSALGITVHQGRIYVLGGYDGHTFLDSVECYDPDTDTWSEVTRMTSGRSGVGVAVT
From the text: (§1) We based the design of our Nrf2-like cyclic peptides around the amino acid sequence of the ETGE motif (namely 12-mer ^73[…]^84L) and SAR studies reported in the literature.[9,10,12,14] The […] motif is known to adopt a beta-turn conformation upon binding to Keap1. Residues Q73-Q75 and L85 stabilise the bound conformation, L76-D77 and E79-G81 bind deep into the pocket with E79 and E82 forming electrostatic interactions with Keap1 and D77 and T80 stabilising the beta-turn via H-bonds with E78 not contributing to the binding. […] The ability of the cyclic peptides to bind to the Kelch domain of Keap1 was evaluated using surface plasma resonance (SPR), where the Kelch domain is immobilised onto a SPR sensor chip. Additionally, we assessed the ability of the peptides to inhibit the PPI between Nrf2 and the Kelch domain of Keap1 using a time-resolved FRET (TR-FRET) assay. Here, the IC50 for inhibition of the interaction between the human Keap1 Kelch domain and an Nrf2-ETGE peptide is measured.
(§2) Surface Plasmon Resonance (SPR)
(§3) Peptide affinities to the Kelch domain of Keap1 is determined in a direct binding assay using 8K surface plasmon resonance (SPR) biosensor (Cytiva) at 20°C. Immobilization of Keap1 Kelch domain on a CM5 sensor chip (Cytiva) is performed using standard amine coupling procedure. The surface is washed with 10mM NaOH, 1M NaCl before activated with EDC/NHS (Cytiva), followed by immobilization of human Keap1 Kelch domain (A321-T609) fused with N-terminal 6x His-tag7 (in 10 mM MES, pH=6.4).
(§4) Finally, the surface is deactivated by Ethanolamine. Immobilization levels are typically 5000-6000 RU.
(§5) The reference spot is treated as described, omitting the injection of Keap1. Compound concentration series are injected over the immobilized protein in increasing concentrations using single cycle kinetics (SCK) in running buffer (10 mM HEPES, 150 mM NaCl, 0.05% Tween20, 1 mM TCEP, pH 7.4). A 1:1 Langmuir interaction model is fitted to the experimental traces, enabling determination of kon, koff and […]
(§6) In the time-resolved Förster resonance energy transfer (TR-FRET) assay8 the IC50 of inhibitors which […]
(§7) are determined. The TR-FRET is measured between a Tb-labelled mAb (Anti—6-His, Tb cryptate Gold, CisBio 61H12TLB) that binds to Keap 1 Kelch domain and d2-labelled SA-biotin-peptide.
(§8) The assay was performed in 384-well white low-volume, medium binding plates (Greiner Bio One, Austria) in 20 mM HEPES pH 7.5, 150 mM NaCl, 2 mM GSH (Sigma-Aldrich, USA),1mM EDTA (Sigma-Aldrich, USA), and 0.01% Pluronic F127 (MilliporeSigma, USA), with a final reaction volume of 10 µL.
(§9) To determine the ability of synthesized peptide to inhibit PPI between the Keap1 Kelch domain and Nrf2, 1nM purified human Keap1 Kelch domain (A321-T609) fused with N-terminal 6x His-tag, 5 nM biotinylated Nrf2 peptide ([…], Genescript, USA), d2-labeled streptavidin (Revvity, USA), and […] anti-His monoclonal antibody tagged with terbium cryptate (Revvity, USA), were incubated in the presence of varying concentrations of investigated peptides for 3 h at room […]
(§10) 7 Li X, Zhang D, Hannink M, Beamer LJ. Crystallization and initial crystallographic analysis of the Kelch domain from human Keap1. Acta
(§11) 8 S. Lee, D. Ali Abed, L. J. Beamer, L. Hu, Development of a Homogeneous Time-Resolved Fluorescence Resonance Energy Transfer (TR-
Following the incubation, the PHERAstar FSX […] microplate reader was used to measure the acceptor and donor emissions at 665 nm and 620 nm, respectively. The acceptor/donor ratio was used to calculate relative energy transfer. Data was normalized by two-point normalization using neutral and inhibitor controls (neutral control: DMSO, inhibitor control: 0.1nM 2-[[4-[carboxymethyl-(4-methoxyphenyl)sulfonylamino]naphthale n-1-yl]-(4-methoxyphenyl)sulfonylamino]acetic acid; […]
parameter logistic fit and IC50 values were calculated using Genedata screener software (Genedata, […]

[2] = tested on: NQO1 gene expression in BEAS-2B cells (Homo sapiens); assay: BEAS-2B NQO1 assay (qPCR of NQO1 mRNA); format: cell-based; conditions: 24 h, concentrations of up to 10 μM
Sequence of NQO1 gene expression in BEAS-2B cells (Homo sapiens) (Q14145 whole entry): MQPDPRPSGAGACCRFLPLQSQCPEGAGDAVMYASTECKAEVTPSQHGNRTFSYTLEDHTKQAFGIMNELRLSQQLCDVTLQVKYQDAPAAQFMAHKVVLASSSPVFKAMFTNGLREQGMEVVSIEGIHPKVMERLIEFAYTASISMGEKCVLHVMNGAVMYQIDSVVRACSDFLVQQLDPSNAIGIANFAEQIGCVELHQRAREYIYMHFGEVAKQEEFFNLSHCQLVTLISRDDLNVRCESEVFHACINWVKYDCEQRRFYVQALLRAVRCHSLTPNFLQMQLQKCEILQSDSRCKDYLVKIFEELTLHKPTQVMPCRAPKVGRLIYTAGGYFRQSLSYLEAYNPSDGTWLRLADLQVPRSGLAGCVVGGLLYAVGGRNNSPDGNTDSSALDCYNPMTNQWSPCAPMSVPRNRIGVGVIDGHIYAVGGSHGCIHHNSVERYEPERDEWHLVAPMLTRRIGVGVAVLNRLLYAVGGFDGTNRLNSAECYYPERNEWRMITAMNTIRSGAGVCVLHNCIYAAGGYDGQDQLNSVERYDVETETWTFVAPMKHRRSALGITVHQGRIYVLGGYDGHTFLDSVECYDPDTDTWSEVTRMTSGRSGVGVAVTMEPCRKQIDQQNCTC
From the text: The effect of peptides on Nrf2-dependent gene expression was investigated in BEAS-2B cells, where we determined the upregulation of the mRNA of NAD(P)H quinone dehydrogenase (NQO1) by qPCR. The expression of NQO1 is Nrf2-dependent and it is one of the two major quinone reductases, which play a crucial role in protecting cells from oxidative stress.[40] ^§§ In the context of this study we chose BEAS-2B cells as a representative model for epithelial cells. The presence of serum has been reported to affect BEAS-2B cell phenotype. Specifically, exposure of BEAS-2B to FBS has been associated with squamous differentiation, alteration in cytokine secretion and response to toxicants.[42–44] […] In order to improve the cellular uptake, we took of advantage of the 2C-PS moiety, which not only allows the easy synthesis of a variety of macrocycles of different ring sizes, but also permits the facile introduction of a diverse set of moieties, which could enhance cell permeability. We pursued a diverse set of strategies to make the Keap1 peptide more cell permeable, namely: masking of the acidic amino acids with methyl esters, introduction of polyarginine peptides, GWWG-polyarginine peptides or a long-chain fatty acid tag onto the staple, as well as peptide shortening and a combination of these. The rationale behind these strategies is explained herein, and details of their synthesis can be found in the ESI. ^†
Cellular Biology Experimental
(Thermo Fisher Scientific, USA).
calculated using QunatStudio 7 software.

[3] = biological target: T2, human Keap1 Kelch domain (A321-T609) (Homo sapiens, UniProt Q14145); assay: Surface plasmon resonance (SPR) direct binding assay, immobilised Keap1 Kelch domain; conditions: Table 1; for Kd: geometric mean ± sd of at least 3 independent repeats unless stated, 20°C; for koff / kon: single cycle kinetics, 1:1 Langmuir model
T2 construct: human Keap1 Kelch domain (A321-T609) fused with N-terminal 6x His-tag; 6xHis (N); made in house
T2 sequence (Q14145 321-609): as the sequence (Q14145 321-609) above
From the text: as §1, §2, §3, §4, §5, §6, §7, §8, §9, §10, §11

[4] = tested on: BEAS-2B cells; assay: CellTiter Glo assay; conditions: P8-H tested up to 30 μM
From the text: performed according to manufacturer instruction and using BEAS-2B cells

Compound	IC50 [1] [nM]	induction of NQO1 mRNA (Nrf2-dependent gene expression) [2]	Kd [3] [nM]	koff [3] [s⁻¹]	kon [3] [M⁻¹ s⁻¹]	cytotoxicity in CellTiter Glo assay [4]
Ac-LQLDPETGEFL-NH2 [reference compound]	5.3 ± 1.2	did not lead to any induction	52 ± 1.4	0.0079	170000	
CC1(C)CC[C@]2(C(=O)O)CC[C@]3(C)[C@H](C(=O)C=C4[C@@]5(C)C=C(C#N)C(=O)C(C)(C)[C@@H]5CC[C@]43C)[C@@H]2C1 [Bardoxolone, reference compound]						cytotoxic
CC(=O)N[C@H]1CSCCc2cc(nc(NCCOCCOCc3cn(CCCCC(=O)NCC(=O)N[C@@H](Cc4c[nH]c5ccccc45)C(=O)N[C@@H](Cc4c[nH]c5ccccc45)C(=O)NCC(=O)N[C@H](CCCNC(=N)N)C(=O)N[C@H](CCCNC(=N)N)C(=O)N[C@H](CCCNC(=N)N)C(N)=O)nn3)n2)CCSC[C@@H](C(=O)N[C@@H](CC(C)C)C(N)=O)NC(=O)[C@H](CCC(=O)O)NC(=O)CNC(=O)[C@H]([C@@H](C)O)NC(=O)[C@H](CCC(=O)O)NC(=O)[C@@H]2CCCN2C(=O)[C@H](CC(=O)O)NC(=O)[C@H](CC(C)C)NC(=O)[C@H](CCC(N)=O)NC(=O)[C@H](CC(C)C)NC1=O [Peptide P3-G] (I: Ac-CLQLDPETGECL-NH2 / II: GWWG[dR][dR][dR]-NH2; linker I:1-I:11-II:N via X2)		no activity was detected				
CCCCCCCCCCCCCCCCCC(=O)NCCCC[C@H](NC(=O)COCCOCCNC(=O)COCCOCCn1cc(COCCOCCNc2nc3cc(n2)CCSC[C@@H](C(=O)N[C@@H](CC(C)C)C(N)=O)NC(=O)[C@H](CCC(=O)O)NC(=O)CNC(=O)[C@H]([C@@H](C)O)NC(=O)[C@H](CCC(=O)O)NC(=O)[C@@H]2CCCN2C(=O)[C@H](CC(=O)O)NC(=O)[C@H](CC(C)C)NC(=O)[C@H](CCC(N)=O)NC(=O)[C@H](CC(C)C)NC(=O)[C@@H](NC(C)=O)CSCC3)nn1)C(=O)NCCOCCOCC(=O)NCCOCCOCC(N)=O [Peptide P3-H] (Ac-CLQLDPETGECL-NH2; linker 1-11 via X3)		did not induce Nrf2-dependent gene expression				
CC(=O)N[C@H]1CSCCc2cc(nc(NCCOCCOCc3cn(CCCCC(=O)NCC(=O)N[C@@H](Cc4c[nH]c5ccccc45)C(=O)N[C@@H](Cc4c[nH]c5ccccc45)C(=O)NCC(=O)N[C@H](CCCNC(=N)N)C(=O)N[C@H](CCCNC(=N)N)C(=O)N[C@H](CCCNC(=N)N)C(N)=O)nn3)n2)CCSC[C@@H](C(=O)N[C@@H](CC(C)C)C(N)=O)NC(=O)[C@H](CCC(=O)O)NC(=O)CNC(=O)[C@H]([C@@H](C)O)NC(=O)[C@H](CCC(=O)O)NC(=O)[C@@H]2CCCN2C(=O)[C@H](CC(=O)O)NC1=O [Peptide P8-G]		did not lead to any activity				
CC(=O)N[C@@H](CC(C)C)C(=O)N[C@@H](CCC(N)=O)C(=O)N[C@H]1CSCc2cccc(c2)CSC[C@@H](C(=O)N[C@@H](CC(C)C)C(N)=O)NC(=O)[C@H](CCC(=O)O)NC(=O)CNC(=O)[C@H]([C@@H](C)O)NC(=O)[C@H](CCC(=O)O)NC(=O)[C@@H]2CCCN2C(=O)[C@H](CC(=O)O)NC1=O [Peptide P2-C] (Ac-LQCDPETGECL-NH2; linker 3-10 via mXylylene)	5.6 ± 1.1		36 ± 1.8	0.013	500000	
CC(=O)N[C@H]1Cn2cc(nn2)-c2cc(C(=O)O)cc(c2)-c2cn(nn2)C[C@@H](C(=O)N[C@@H](CC(C)C)C(N)=O)NC(=O)[C@H](CCC(=O)O)NC(=O)CNC(=O)[C@H]([C@@H](C)O)NC(=O)[C@H](CCC(=O)O)NC(=O)[C@@H]2CCCN2C(=O)[C@H](CC(=O)O)NC(=O)[C@H](CC(C)C)NC(=O)[C@H](CCC(N)=O)NC(=O)[C@H](CC(C)C)NC1=O [Peptide P3Aza-E]	4 ± 1.4		34 ± 1.3	0.0054	170000	
CC(=O)N[C@@H](CS)C(=O)N[C@@H](CCC(N)=O)C(=O)N[C@@H](CC(C)C)C(=O)N[C@@H](CC(=O)O)C(=O)N1CCC[C@H]1C(=O)N[C@@H](CCC(=O)O)C(=O)N[C@H](C(=O)NCC(=O)N[C@@H](CCC(=O)O)C(=O)N[C@@H](CS)C(=O)N[C@@H](CC(C)C)C(N)=O)[C@@H](C)O [Peptide P1] (Ac-CQLDPETGECL-NH2)	4.9 ± 1.1		20 ± 1.2	0.0014	86000	
CC(=O)N[C@@H](CC(C)C)C(=O)N[C@@H](CCC(N)=O)C(=O)N[C@H]1CSCSC[C@@H](C(=O)N[C@@H](CC(C)C)C(N)=O)NC(=O)[C@H](CCC(=O)O)NC(=O)CNC(=O)[C@H]([C@@H](C)O)NC(=O)[C@H](CCC(=O)O)NC(=O)[C@@H]2CCCN2C(=O)[C@H](CC(=O)O)NC1=O [Peptide P2-A] (Ac-LQCDPETGECL-NH2; linker 3-10 via CH2)	8.3 ± 1.1		70 ± 1	0.015	210000	
CC(=O)N[C@H]1CSCCc2cc(nc(N(C)CC(=O)O)n2)CCSC[C@@H](C(=O)N[C@@H](CC(C)C)C(N)=O)NC(=O)[C@H](CCC(=O)O)NC(=O)CNC(=O)[C@H]([C@@H](C)O)NC(=O)[C@H](CCC(=O)O)NC(=O)[C@@H]2CCCN2C(=O)[C@H](CC(=O)O)NC(=O)[C@H](CC(C)C)NC(=O)[C@H](CCC(N)=O)NC1=O [Peptide P1-D] (Ac-CQLDPETGECL-NH2; linker 1-10 via X1)	2.9 ± 1.4		25 ± 1.3	0.0047	200000	
CC(=O)N[C@@H](CC(C)C)C(=O)N[C@@H](CCC(N)=O)C(=O)N[C@H]1CSCCc2cc(nc(N(C)CC(=O)O)n2)CCSC[C@@H](C(=O)N[C@@H](CC(C)C)C(N)=O)NC(=O)[C@H](CCC(=O)O)NC(=O)CNC(=O)[C@H]([C@@H](C)O)NC(=O)[C@H](CCC(=O)O)NC(=O)[C@@H]2CCCN2C(=O)[C@H](CC(=O)O)NC1=O [Peptide P2-D] (Ac-LQCDPETGECL-NH2; linker 3-10 via X1)	4.8 ± 1.5		54 ± 1.2	0.0083	160000	
